The subject of test [1] is filaggrin production in human skin keratinocytes (NHEK). In words: Filaggrin production test (A): fluorescent immunostaining with Anti-FLG. In kind it is cell-based. To be noted: for Increase rate of brightness: overnight, relative to Lcell of Comparative Test Example 2 (no calcium salt added = 100); for Brightness/Cell number (Lcell): incubated overnight. The method, then: Various calcium salts were dispersed in water so that the concentration calculated in terms of calcium ion would be 0.89 M, this obtained dispersed solution was then sterilized in an autoclave (at 120° C. for 20 minutes), and thereby various calcium salt stock dispersed solutions were prepared.
Then, according to Table 11, each calcium salt stock aqueous dispersed solution was added to a medium (manufactured by KURABO […] LTD., HuMedia-KG2) while pipetting so that that a predetermined supplemented concentration calculated in terms of calcium ion would be obtained, and thereby a calcium salt supplemented medium was prepared.
On a culture plate of 24-wells to which the same medium as used in the preparation of the above-mentioned calcium salt supplemented medium was added, human skin keratinocytes (manufactured by KURABO […] LTD., NHEK) were inoculated so that the cell density would be 3,800 cells/cm^2, and this was cultured for 3 days (37° C., 5% CO2). Then, this medium was exchanged with the calcium salt supplemented medium prepared as mentioned above and incubated for overnight (37° C., 5% CO2).
Whether filaggrin is produced by a calcium salt was examined using fluorescent immunostaining methods by Anti-Filaggrin/FLG, Rabbit-Poly, Alexa Fluor 488 (manufactured by BIS, hereinafter referred to as “Anti-FLG” as well). Moreover, for comparing the staining, DAPI (4′,6-diamidino-2-phenylindole dihydrochloride, manufactured by Wako Pure Chemical Industries, Ltd) was used to stain the nucleus.
That is to say that the above-mentioned incubated cells for overnight were washed with PBS and fixed with 4% paraformaldehyde solution (manufactured by Wako Pure Chemical Industries, Ltd). The fixed cells were permeabilized with 0.1% Triton-X 100, incubated for overnight with Anti-FLG PBS solution (×50) at 4° C., and then stained with a PBS solution of 100 nM DAPI. Note that the cells were washed with PBS after every operation.
For calculating the relative production amount of filaggrin, a fluorescent microscopic image of the above-mentioned stained cells was taken. The brightness of the image was quantified using Photoshop CS3, and this was normalized by dividing the obtained numerical value with cell numbers (Brightness/Cell number; Lcell). Moreover, the increase rate of brightness by adding various calcium salts in comparison with Lcell of the Comparative Test Example 2 in which calcium salt aqueous dispersed solution has not been added to the medium was calculated.

Test [2] shares this test system. The experiment in a line: Filaggrin production test (B): calcium salt composition, fluorescent immunostaining. In kind it is cell-based. To be noted: for Increase rate of brightness: unsupplemented = 100. The protocol: Then, according to Table 12, the calcium salt stock aqueous dispersed solution was added to the same medium as used in filaggrin production test (A) while pipetting so that a predetermined supplemented concentration calculated in terms of calcium ion would be obtained, and thereby a calcium salt supplemented medium was prepared.
On a culture plate of 24-wells to which the same medium as used in filaggrin production test (A) was added, human skin keratinocytes (manufactured by KURABO […] LTD., NHEK) were inoculated so that the cell density would be 3,800 cells/cm^2, and this was cultured for 3 days (37° C., 5% CO2). Then, this medium was exchanged with the calcium salt supplemented medium prepared as mentioned above and incubated for a day or two (37° C., 5% CO2). These incubated cells were stained as in the above-mentioned filaggrin production test (A), and Lcell and the increase rate of brightness were calculated.

[3] abbreviates: supplemented concentration calculated in terms of calcium ion 1.78 mM.
Setting [4] is: calcium ion 0.09 mM, cells incubated for 1 day.
The mark [5] stands for this setting: calcium ion 0.09 mM, cells incubated for 2 days.
[6] abbreviates: calcium ion 0.89 mM, cells incubated for 1 day.
Where [7] appears, read: calcium ion 0.89 mM, cells incubated for 2 days.
Setting [8] is: supplemented concentration calculated in terms of calcium ion 0.89 mM.

In the case of `[Ca+2].[Cl-].[Cl-]` [Calcium chloride], the “Increase rate of brightness” value in test [1] (calcium ion 1.78 mM) turned out to be 130%; in test [2] (setting [4]) it was 83%; in test [2] (setting [5]) it was 89%; in test [2] (setting [6]), 96%; in test [2] (setting [7]), 110%. Further, the “Brightness/Cell number (Lcell)” value was 0.12 in test [1] (setting [3]); 0.20 in test [2] (setting [4]); 0.16 in test [2] (setting [5]); 0.23 in test [2] (setting [6]); 0.20 in test [2] (setting [7]).

As to `O=P([O-])([O-])OP(=O)([O-])[O-].[Ca+2].[Ca+2]` [Calcium pyrophosphate], the results for the “Increase rate of brightness” value in test [1] (calcium ion 0.89 mM) and in test [1] (calcium ion 1.78 mM) were 290% and 260%, respectively. In addition, the “Filaggrin production compared to calcium chloride” value in test [1] (human skin keratinocytes, Table 11) is listed as “relatively high filaggrin production as compared to that of calcium chloride”. For the same compound, the entries for the “Brightness/Cell number (Lcell)” value in test [1] (setting [8]) and in test [1] (setting [3]) were 0.28 and 0.25, respectively.

In the case of Calcium glycerophosphate, in test [1] (calcium ion 1.78 mM), the “Increase rate of brightness” value is 200%. The “Brightness/Cell number (Lcell)” value in test [1] (setting [3]) is listed as 0.19.

As to `O=P([O-])(O)O.O=P([O-])(O)O.[Ca+2]` [Calcium dihydrogen phosphate], the “Increase rate of brightness” value in test [1] (calcium ion 0.89 mM) was determined as 180%. Moreover, in test [1] (setting [8]), the “Brightness/Cell number (Lcell)” value is listed as 0.17.

The values are drawn from US20180185414A1, “CALCIUM SALT COMPOSITION AND FILAGGRIN PRODUCTION PROMOTER USING THE SAME” (NISSAN CHEMICAL INDUSTRIES, LTD., priority 2015, published 2018).
